Data on 31 compounds can be found in patent US6875760B2 (Novo Nordisk A/S, priority 1999, dated 2005).

The IC50 is the concentration that inhibits the measured activity by half.

This assay has as its target T1, human glucagon receptor (Homo sapiens, UniProt P47871).
T1 construct: expressed in transfected cells; host or cells: BHK (baby hamster kidney) cells
In words: Glucagon Binding Assay (III). Particulars: BHK cell membranes, WGA SPA beads, 125I-glucagon; read-out: Glu Bd Assay (III) IC50. As to the method: BHK (baby hamster kidney cell line) cells were transfected with the human glucagon receptor and a membrane preparation of the cells was prepared.
All steps in the membrane preparation were kept on ice or performed at 4° C. BHK cells were harvested and centrifuged. […] The pellet was resuspended in homogenisation buffer, homogenised 2×10 sec (Polytron) and additional homogenisation buffer was added. […] (Polytron).
The glucagon binding assay was carried out in opti plates (Polystyrene Microplates, Packard). […] Finally 50 μL WGA beads containing 1 mg beads were transferred to the well. The assay was incubated for 4 hours on a shaker and then settled for 8-48 hours. The opti plates were counted in a Topcounter. Non-specific binding was determined with 500 nM of glucagon.

SMILES strings stand for the structures.

T1 sequence (P47871 26-477): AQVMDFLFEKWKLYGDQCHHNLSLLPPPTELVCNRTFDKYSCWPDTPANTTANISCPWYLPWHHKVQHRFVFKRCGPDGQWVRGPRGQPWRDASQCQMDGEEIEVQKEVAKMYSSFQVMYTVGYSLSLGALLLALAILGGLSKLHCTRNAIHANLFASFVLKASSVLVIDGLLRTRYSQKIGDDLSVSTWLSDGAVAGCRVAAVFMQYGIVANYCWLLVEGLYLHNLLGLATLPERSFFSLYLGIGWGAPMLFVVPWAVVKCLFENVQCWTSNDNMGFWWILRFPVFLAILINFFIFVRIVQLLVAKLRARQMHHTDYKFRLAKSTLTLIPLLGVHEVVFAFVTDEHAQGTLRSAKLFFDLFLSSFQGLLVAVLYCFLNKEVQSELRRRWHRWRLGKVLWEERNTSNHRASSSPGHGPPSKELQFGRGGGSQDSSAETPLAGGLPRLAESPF

Take `CCCCC(CC)CN(Cc1ccc(C(=O)NCCC(=O)O)cc1)C(=O)Nc1ccc(C(C)C)cc1` (stereo not shown) [Example 43, 3-{4-[1-(2-Ethylhexyl)-3-(4-isopropylphenyl)ureidomethyl]benzoylamino}propionic acid]: the IC50 was determined as 1110 nM.
The result for `CC1CCCC(N(Cc2ccc(C(=O)NCCC(=O)O)cc2)C(=O)Nc2ccc(Oc3ccccc3)cc2)C1` (stereo not shown) [Example 44, 3-{4-[1-(3-Methylcyclohexyl)-3-(4-phenoxyphenyl)ureidomethyl]benzoylamino}propionic acid] reads 819 nM.
With `CC1CCC(N(Cc2ccc(C(=O)NCCC(=O)O)cc2)C(=O)Nc2ccc(OCc3ccccc3)cc2)CC1` (stereo not shown) [Example 45, 3-{4-[3-(4-Benzyloxyphenyl)-1-(4-methylcyclohexyl)ureidomethyl]benzoylamino}propionic acid] the figure was 1190 nM; with `CCc1ccc(NC(=O)N(CCc2ccc(Cl)c(Cl)c2)Cc2ccc(C(=O)NCCC(=O)O)cc2)cc1` [Example 46, 3-{4-[1-[2-(3,4-Dichlorophenyl)ethyl)-3-(4-ethylphenyl)ureidomethyl]benzoylamino}propionic acid], 456 nM.
The result for `O=C(O)CCNC(=O)c1ccc(CN(CCc2ccc(Cl)c(Cl)c2)C(=O)Nc2ccc(OCc3ccccc3)cc2)cc1` [Example 47, 3-{4-[3-(4-Benzyloxyphenyl)-1-[2-(3,4-dichlorophenyl)ethyl]ureidomethyl]benzoylamino}propionic acid] reads 1100 nM; that for `CC1CCCCC1N(Cc1ccc(C(=O)NCCC(=O)O)cc1)C(=O)Nc1ccc(Oc2ccccc2)cc1` (stereo not shown) [Example 48, 3-{4-[1-(2-Methylcyclohexyl)-3-(4-phenoxyphenyl)ureidomethyl]benzoylamino}propionic acid], 1080 nM; that for `CCCCOC(=O)c1ccc(NC(=O)N(Cc2ccc(C(=O)NCCC(=O)O)cc2)CC(C)c2ccccc2)cc1` (stereo not shown) [Example 49, 4-[3-[4-(2-Carboxyethylcarbamoyl)benzyl]-3-(2-phenylpropyl)ureido]benzoic acid butyl ester], 1320 nM.
As for `CC(C)c1ccc(NC(=O)N(Cc2ccc(C(=O)NCCC(=O)O)cc2)CC(C)c2ccccc2)cc1` (stereo not shown) [Example 50, 3-{4-[3-(4-Isopropylphenyl)-1-(2-phenylpropyl)ureidomethyl]benzoylamino}propionic acid], the IC50 turned out to be 564 nM.
The result for `CCCCOC(=O)c1ccc(NC(=O)N(CCc2ccc(Cl)cc2)Cc2ccc(C(=O)NCCC(=O)O)cc2)cc1` [Example 51, 4-{3-[4-(2-Carboxyethylcarbamoyl)benzyl]-3-[2-(4-chlorophenyl)ethyl]ureido}benzoic acid butyl ester] reads 721 nM.
The result for `CC(C)c1ccc(NC(=O)N(CCc2ccc(Cl)cc2)Cc2ccc(C(=O)NCCC(=O)O)cc2)cc1` [Example 52, 3-{4-[1-[2-(4-Chlorophenyl)ethyl]-3-(4-isopropylphenyl)ureidomethyl]benzoylamino}propionic acid] reads 383 nM.
In the case of `O=C(O)CCNC(=O)c1ccc(CN(CC(c2ccccc2)c2ccccc2)C(=O)Nc2ccc(Oc3ccccc3)cc2)cc1` [Example 53, 3-{4-[1-(2,2-Diphenylethyl)-3-(4-phenoxyphenyl)ureidomethyl]benzoylamino}propionic acid], the IC50 worked out at 505 nM.
For `CCCCOC(=O)c1ccc(NC(=O)N(Cc2ccc(C(=O)NCCC(=O)O)cc2)CC(c2ccccc2)c2ccccc2)cc1` [Example 54, 4-[3-[4-(2-Carboxyethylcarbamoyl)benzyl]-3-(2,2-diphenylethyl)ureido]benzoic acid butyl ester], the IC50 was 337 nM.
Turning to `CC(C)c1ccc(NC(=O)N(Cc2ccc(C(=O)NCCC(=O)O)cc2)CC(c2ccccc2)c2ccccc2)cc1` [Example 55, 3-{4-[1-(2,2-Diphenylethyl)-3-(4-isopropylphenyl)ureidomethyl]benzoylamino}propionic acid], the IC50 was 1000 nM.
The result for `CC(C)c1ccc(NC(=O)N(Cc2ccc(C(=O)NCCC(=O)O)cc2)C2CCC(C(C)(C)C)CC2)cc1` (stereo not shown) [Example 56, 3-{4-[1-(4-tert-Butylcyclohexyl)-3-(4-isopropylphenyl)ureidomethyl]benzoylamino}propionic acid] reads 59 nM.
Turning to `CC(C)(C)C1CCC(N(Cc2ccc(C(=O)NCCC(=O)O)cc2)C(=O)Nc2ccc(Oc3ccccc3)cc2)CC1` (stereo not shown) [Example 57, 3-{4-[1-(4-tert-Butylcyclohexyl)-3-(4-phenoxyphenyl)ureidomethyl]benzoylamino}propionic acid], the IC50 came out at 90 nM.
With `CC(C)(C)C1CCC(N(Cc2ccc(C(=O)NCCC(=O)O)cc2)C(=O)Nc2ccc(SC(F)(F)F)cc2)CC1` (stereo not shown) [Example 58, 3-{4-[1-(4-tert-Butylcyclohexyl)-3-(4-trifluoromethylsulfanylphenyl)ureidomethyl]benzoylamino}propionic acid] the figure was 139 nM.
The result for `COc1ccc(NC(=O)N(Cc2ccc(C(=O)NCCC(=O)O)cc2)C2CCC(C(C)(C)C)CC2)cc1` (stereo not shown) [Example 59, 3-{4-[1-(4-tert-Butylcyclohexyl)-3-(4-methoxyphenyl)ureidomethyl]benzoylamino}propionic acid] reads 3800 nM; that for `CC(=O)c1ccc(NC(=O)N(Cc2ccc(C(=O)NCCC(=O)O)cc2)C2CCC(C(C)(C)C)CC2)cc1` (stereo not shown) [Example 60, 3-{4-[3-(4-Acetylphenyl)-1-(4-tert-butylcyclohexyl)ureidomethyl]benzoylamino}propionic acid], 83 nM; that for `CCCCOC(=O)c1ccc(NC(=O)N(Cc2ccc(C(=O)NCCC(=O)O)cc2)C2CCC(C(C)(C)C)CC2)cc1` (stereo not shown) [Example 61, 4-{3-(4-tert-Butylcyclohexyl)-3-[4-(2-carboxyethylcarbamoyl)benzyl]ureido}benzoic acid butyl ester], 48 nM.
With `CC(C)Cc1ccc(NC(=O)N(Cc2ccc(C(=O)NCCC(=O)O)cc2)C2CCC(C(C)(C)C)CC2)cc1` (stereo not shown) [Example 62, 3-{4-[1-(4-tert-Butylcyclohexyl)-3-(4-isobutylphenyl)ureidomethyl]benzoylamino}propionic acid] the figure was 39 nM.
Regarding `CC(C)(C)C1CCC(N(Cc2ccc(C(=O)NCCC(=O)O)cc2)C(=O)Nc2ccc(C(F)(F)F)cc2)CC1` (stereo not shown) [Example 63, 3-{4-[1-(4-tert-Butylcyclohexyl)-3-(4-trifluoromethylphenyl)ureidomethyl]benzoylamino}propionic acid], the IC50 was 645 nM.
Regarding `CC1C(N(Cc2ccc(C(=O)NCCC(=O)O)cc2)C(=O)Nc2ccc(OC(F)(F)F)cc2)CC2CC1C2(C)C` (stereo not shown) [Example 65, 3-{4-[3-(4-Trifluoromethoxyphenyl)-1-(2,6,6-trimethylbicyclo[3.1.1]hept-3-yl)ureidomethyl]benzoylamino}propionic acid], the IC50 was found to be 183 nM.
With `CC(C)c1ccc(NC(=O)N(Cc2ccc(C(=O)NCCC(=O)O)cc2)C2CC3CC(C2C)C3(C)C)cc1` (stereo not shown) [Example 66, 3-{4-[3-(4-Isopropylphenyl)-1-(2,6,6-trimethylbicyclo[3.1.1]hept-3-yl)ureidomethyl]benzoylamino}propionic acid] the figure was 267 nM; with `CC(C)(C)C1CCC(N(Cc2ccc(C(=O)NCCC(=O)O)cc2)C(=O)Nc2ccc([N+](=O)[O-])cc2)CC1` (stereo not shown) [Example 67, 3-{4-[1-(4-tert-Butylcyclohexyl)-3-(4-nitrophenyl)ureidomethyl]benzoylamino}propionic acid], 891 nM; with `CC(C)(C)C1CCC(N(Cc2ccc(C(=O)NCCC(=O)O)cc2)C(=O)Nc2ccc(-c3ccc(C#N)cc3)cc2)CC1` (stereo not shown) [Example 68, 3-{4-[1-(4-tert-Butylcyclohexyl)-3-(4′-cyanobiphenyl-4-yl)ureidomethyl]benzoylamino}propionic acid], 552 nM.
The result for `CCCCOc1ccc(NC(=O)N(Cc2ccc(C(=O)NCCC(=O)O)cc2)C2CCC(C(C)(C)C)CC2)cc1` (stereo not shown) [Example 69, 3-{4-[3-(4-Butoxyphenyl)-1-(4-tert-butyl-cyclohexyl)ureidomethyl]benzoylamino}propionic acid] reads 90 nM; that for `CC(C)(C)C1CCC(N(Cc2ccc(C(=O)NCCC(=O)O)cc2)C(=O)Nc2ccc(C#N)c(C(F)(F)F)c2)CC1` (stereo not shown) [Example 70, 3-{4-[1-(4-tert-Butylcyclohexyl)-3-(4-cyano-3-trifluoromethylphenyl)ureidomethyl]benzoylamino}propionic acid], 168 nM; that for `CC(C)(C)C1CCC(N(Cc2ccc(C(=O)NCCC(=O)O)cc2)C(=O)Nc2ccc(F)c(C(F)(F)F)c2)CC1` (stereo not shown) [Example 71, 3-{4-[1-(4-tert-Butylcyclohexyl)-3-(4-fluoro-3-trifluoromethylphenyl)ureidomethyl]benzoylamino}propionic acid], 124 nM.
Turning to `CC(C)(C)C1CCC(N(Cc2ccc(C(=O)NCCC(=O)O)cc2)C(=O)Nc2ccc(F)c(F)c2)CC1` (stereo not shown) [Example 72, 3-{4-[1-(4-tert-Butylcyclohexyl)-3-(3,4-difluorophenyl)ureidomethyl]benzoylamino}propionic acid], the IC50 is 673 nM.
With `CC(C)OC(=O)c1ccc(NC(=O)N(Cc2ccc(C(=O)NCCC(=O)O)cc2)C2CCC(C(C)(C)C)CC2)cc1` (stereo not shown) [Example 73, 4-{3-(4-tert-Butylcyclohexyl)-3-[4-(2-carboxyethylcarbamoyl)benzyl]ureido}benzoic acid isopropyl ester] the figure was 245 nM; with `CC(C)(C)C1CCC(N(Cc2ccc(C(=O)NCCC(=O)O)cc2)C(=O)Nc2ccc(Cl)c(C(F)(F)F)c2)CC1` (stereo not shown) [Example 74, 3-{4-[1-(4-tert-Butylcyclohexyl)-3-(4-chloro-3-trifluoromethylphenyl)ureidomethyl]benzoylamino}propionic acid], 61 nM.
